According to patent EP2119770B1, “Production of alpha-oxyfunctionalized carbonyl compounds” (priority 2008, dated 2009):
Blank lines part the entries; values can stand above or below the compound they belong to.

What was measured:
Format in all cases: biochemical
Gox1615 [1] = target: T1, Gox1615 (Gluconobacter oxydans, UniProt Q5FQJ0); experiment: Enzyme kinetics (Lineweaver-Burk plots), Gox1615; details: NADPH-dependent reduction
T1 sequence (Q5FQJ0 1-332): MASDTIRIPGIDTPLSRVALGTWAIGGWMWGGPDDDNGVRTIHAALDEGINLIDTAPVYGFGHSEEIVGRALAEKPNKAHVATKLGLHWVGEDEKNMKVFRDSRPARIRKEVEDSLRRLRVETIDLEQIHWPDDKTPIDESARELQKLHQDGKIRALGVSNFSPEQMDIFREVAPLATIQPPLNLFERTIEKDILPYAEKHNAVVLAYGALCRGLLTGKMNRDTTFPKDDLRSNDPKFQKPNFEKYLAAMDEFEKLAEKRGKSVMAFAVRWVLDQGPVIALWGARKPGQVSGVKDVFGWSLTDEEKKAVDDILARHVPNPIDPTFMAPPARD
Method: (§1) Determination of pH and temperature optima and enzyme kinetics: The optimum pH for enzyme activities was determined by a modified method of Salusjärvi, T. et al., Appl. Microbiol. Biotechnol. 65:306-314 (2004) using the following buffer system (50 mM final concentration each): sodium acetate pH 4.5 - 6.5, potassium phosphate pH 6.5 - 8.0, Tris-HCl pH 8.0 - 10. Temperature optima for the biocatalysts were determined under standard reaction conditions at temperatures ranging from 20 - 80 °C. The Michaelis constant (Km) for the proteins was determined from purified enzyme by Lineweaver-Burk plots. Assays were performed at optimum pH for each enzyme and at 30 °C using the top substrate and a targeted substrate. The Km for each substrate was calculated using concentrations of 0.0025 to 10 mM, and the Km NAD(P)H and NAD(P) was calculated using concentrations of 0.01 to 0.5 mM
(§2) The Michaelis constants were determined from purified enzyme by Lineweaver-Burk plots. The Km and Vmax values for the substrates were calculated using concentrations of 0.025 to 10 mM, The optimal pH values and temperatures for enzyme activities are also shown in Tab. 11. Tab. 11: Summary of kinetic parameters

Gox0644 [2] = target: T2, Gox0644 (Gluconobacter oxydans, UniProt Q5FT75); experiment: Enzyme kinetics (Lineweaver-Burk plots), Gox0644; details: NADPH-dependent reduction
Method: as §1, §2

Gox0644 [3] = target: T2, Gox0644; experiment: Gox0644 acetaldehyde tolerance test
From the text: 3.1. […] By coupling two coenzyme-dependent enzyme reactions, NADPH can be continuously regenerated. […] For this purpose, a combined enzymatic reaction was used between the NADPH-dependent oxidoreductases that form α-hydroxy carbonyl compounds and the aldehyde dehydrogenase GOX1122 that produces the reduced cofactor in the course of acetaldehyde oxidation. […] The products derived from the α-diketone and α-ketoaldehyde substrate reaction were generated according to the cofactor regeneration protocol. […] In both the reactions with phenylglyoxal and 2,3 pentanedione, Gox0644 activity remained similar to the control reaction consisting of a reaction without acetaldehyde (Tab. 12/13). […] In the reaction with 2,3 pentanedione there was a slight decrease of about 20% from the control, however, the activity levels were still very high at 66.8 U/mg. […] Table 12: Gox0644 acetaldehyde tolerance tests with phenylglyoxal

Gox1615 [4] = target: T1, Gox1615; experiment: Regioselectivity of bioconversion, product determined by NMR, Gox1615; details: bioconversion with Gox1122 cofactor regeneration, NMR analysis
From the text: Cofactor regeneration: A prerequisite for the production of α-hydroxycarbonyl compounds is the regeneration of the expensive coenzymes and the stability of the protein catalysts. By coupling two coenzyme-dependent enzyme reactions, NADPH can be continuously regenerated. […] For this purpose, we used a combined enzymatic reaction between the NADPH-dependent oxidoreductases that form α-hydroxycarbonyl compounds and the aldehyde dehydrogenase GOX1122 (see Schweiger, P. et al., J. Mol. Microbiol. Biotechnol. 13:147-155 (2007)) that produces the reduced cofactor in the course of acetaldehyde oxidation. […] The biotransformation was performed in a batch process (total volume 2.5 ml 40 mM potassium phosphate buffer pH 7). 30 µg of purified Gox1122 and of NADPH-dependent oxidoreductases and 50 µM NADPH were added. The substrate concentration in the beginning was 20 mM 2,3-pentanedione and 20 mM acetaldehyde. Fresh substrates were added every 60 min (20 mM each).
NMR: The 2.5 ml bioconversion was extracted with two times equal volume of d-chloroform. ^1H and ^13C NMR spectra were recorded on a DPX 300 Spectrometer (300 MHz) and referenced to the CDCl3 internal standard. Chemical samples analyzed with Bruker NMR Suite 2.5 software constructed final product structures.
2.7 Regioselectivity of GOX0644 and GOX1615: Tab. […] Tab. 10: Summary of Regioselectivity
The reduced NADPH was oxidized in the reduction of phenylglyoxal to 2-hydroxy-2-phenyl-acetaldehyde by protein Gox1615. 5 ml bioconversions for determining regioselectivity were set up with 2 mg of proteins Gox1615 and Gox1122, 40 mM potassium phosphate buffer, pH 7.0, 50 µM NADPH. Substrates (20 mM phenylglyoxal and acetaldehyde) were added every 30 min. The reaction was followed for 3 h to produce quantities between 40-60 mg of product (2-phenyl-2-hydroxyaldehyde).

Vmax (Gox1615 [1]): 6 U/mg protein
Compound: CCCC(=O)C(C)=O [2,3-hexanedione]

Compound: CCC(=O)C(C)=O [2,3-pentanedione]
Vmax (Gox0644 [2]): 79 U/mg protein | activity levels (Gox0644 [3]; Gox0644 with 2,3 pentanedione, high concentration of acetaldehyde): 66.8 U/mg | Gox0644 activity (Gox0644 [3]; substrate 2,3-pentanedione, Control (without acetaldehyde)): 87.6 U/mg | Gox0644 activity (Gox0644 [3]; substrate 2,3-pentanedione, acetaldehyde 10mM): 90.5 U/mg | Gox0644 activity (Gox0644 [3]; substrate 2,3-pentanedione, acetaldehyde 30mM): 79.3 U/mg | Gox0644 activity (Gox0644 [3]; substrate 2,3-pentanedione, acetaldehyde 50mM): 66.8 U/mg | Product (regioselective reduction) (Gox1615 [4]): 2-hdrox-pentane-3-one

Compound: CC(=O)C=O [methylglyoxal]
Vmax (Gox1615 [1]): 22 U/mg protein

Vmax (Gox0644 [2]): 93 U/mg protein | Product (regioselective reduction) (Gox1615 [4]): 2-hydroxy-2-phenyl-acetaldehyde | Product (regioselective reduction) (Gox1615 [4]; listed as Phenylglyoxal): 2-hydroxy-2-phenylacetaldehyde
Compound: O=CC(=O)c1ccccc1 [phenylglyoxal]
Gox0644 activity (Gox0644 [3]; substrate phenylglyoxal, Control (without acetaldehyde)): 38.5 U/mg | Gox0644 activity (Gox0644 [3]; substrate phenylglyoxal, acetaldehyde 10mM): 29.6 U/mg | Gox0644 activity (Gox0644 [3]; substrate phenylglyoxal, acetaldehyde 30mM): 37.1 U/mg | Gox0644 activity (Gox0644 [3]; substrate phenylglyoxal, acetaldehyde 50mM): 39.3 U/mg | Gox0644 activity (Gox0644 [3]; substrate phenylglyoxal, acetaldehyde 100mM): 31.2 U/mg
